Assay results as given in US20230390386A1, “REPLICATION-DEFECTIVE VACCINES AND USES THEREOF” (priority 2020, published 2023).

Tested on: E. coli
Assay: CM treatment of E. coli, colony count on LB agar plates
Format: cell-based
Conditions: three hours at room temperature
Description: CM treatment of E. coli: Overnight cultures of E. coli culture were diluted 200 times in LB media to make final volume of 1 ml and treated with different concentrations (100 μM, 10 μM, 1 μM, and 0.1 μM) of centanamycin for three hours at room temperature. The treated E. coli cells were then centrifuged at 10,000 rpm for 1 min, supernatant was removed and the pellet was resuspended in 100 μl of LB and plated on the LB agar plate without any antibiotic. The plates were then incubated at 37° C. for 16 hours. To determine the effect of centanamycin, the number of colonies were counted on each plate.
First, a culture of E. coli that had been established by an overnight incubation was diluted 200 times in LB media to make final volume to be 1 ml, followed by treatment with different concentrations of centanamycin (100 μM, 10 μM, 1 μM, and 0.1 μM) for three hours at room temperature. The treated cells were then centrifuged at 10,000 rpm for 1 min, supernatant was removed and the pellet was resuspended in 100 μl of LB and plated on LB agar plates without any antibiotic. The plates were then incubated at 37° C. for 16 hours. To determine the effect of centanamycin, the number of colonies on each plate were counted (FIGS. 6A-6B). […] Some of these bacteria were replication-defective and attenuated, making them suitable for use as vaccines.

`COc1cc2cc(C(=O)Nc3cc(N)c4ccccc4c3CCCl)[nH]c2c(OC)c1OC` [CM, centanamycin] was tested, and the “E. coli colonies on LB agar plate after 16 hours” value (shortened to “E. coli colonies on LB agar plate”) (0.1 μM) was “reduce the number of bacterial colonies on the agar plate in a dose dependent manner”, the “E. coli colonies on LB agar plate” value (1 μM) was “reduce the number of bacterial colonies on the agar plate in a dose dependent manner” and the “E. coli colonies on LB agar plate” value (10 μM) was “reduce the number of bacterial colonies on the agar plate in a dose dependent manner”. For the same compound, the “E. coli colonies on LB agar plate” value (100 μM) was “did not grow on the LB agar plate”.
